How the values were obtained:
[1] = test system: L. donovani promastigotes; experiment: L. donovani promastigote viability assay (resazurin); assay type: cell-based, Leishmania donovani; conditions: Leishmania donovani; Figure S1 dose response curves, RFU; read-out: IC50 against the promastigotes of L. donovani
Protocol: Promastigotes of L. donovani from late log phase culture were diluted to 2.0 × 10^6/mL in M-199 containing 10% FBS, 25 mM HEPES (Gibco 15630-080), 100 µM adenine, 12 mM NaHCO3, 10 µM folic acid, 1% penicillin/streptomycin (Gibco 15140-122) as described previously. Compounds and controls were transferred from compound plates to 384 well assay plates with the use of an acoustic transfer system (ATS, EDC Biosystems, Fremont, CA, USA). Promastigotes were incubated with compounds at 29 °C for 48 h. To measure parasite viability, resazurin sodium salt (7-hydroxy-3H-phenoxazin3-one 10-oxide) was dissolved in PBS and added to each well at a volume of 5 µL (final concentration of 44 µM). After incubating for 4 h at room temperature, fluorescence (ex 571 nm/em 584 nm) was recorded with an Envision (Perkin Elmer, Waltham, MA, USA) microplate fluorescence/luminescence reader. […] For positive and negative control amphotericin B and 0.5% DMSO was used, respectively. Dose response and EC50 analyses were obtained using GraphPad Prism 9 Software (Graph Pad Software Inc., San Diego, CA, USA).

[2] = test system: N. fowleri (KUL strain) trophozoites; experiment: N. fowleri trophozoite viability assay (CellTiter-Glo); assay type: cell-based, Naegleria fowleri; conditions: Naegleria fowleri, 48 h
Protocol: N. fowleri (KUL strain) was cultured in Nelson’s medium supplemented with 10% FBS and kept at 37 °C. For all experiments, trophozoites were harvested during the logarithmic phase of growth. Test compounds were serially diluted and transferred to a white solid bottomed 96-well tissue culture plate (E&K Scientific, Swedesboro, NJ, USA) followed by addition of 10,000 N. fowleri trophozoites in Nelson’s medium in a final volume of 100 µL and a final concentration of compounds ranging from 50 to 0.39 µM. Amphotericin B was used as positive control and assay plates were incubated for 48 h at 37 °C. Parasite viability was measured as described for E. histolytica and G. lamblia. EC50 values were obtained using the GraphPad Prism 9 Software.

[3] = test system: T. cruzi (infecting C2C12); experiment: T. cruzi intracellular amastigote assay in C2C12 cells (high content imaging); assay type: cell-based, Trypanosoma cruzi; conditions: Trypanosoma cruzi, C2C12, 72 h, read-out: EC50 T. cruzi (infecting C2C12)
Protocol: Mouse C2C12 myoblasts (ATCC CRL-1772) were cultivated in RPMI 1640 medium supplemented with 5% FBS and kept at 37 °C and 5% CO2. T. cruzi CAI-72 trypomastigotes were obtained from the supernatant of C2C12 cells infected four to seven days previously. For the assay, 500 C2C12 cells were mixed with 7500 T. cruzi parasites and seeded into 384-well plates at a 50 µL final volume. Test compounds and reference drugs (Benznidazole and K11777) were pre-spotted into the 384 well black bottom plates prior to the addition of cells and parasites with final assay concentration of 20 µM to 0.02 µM. The plates were incubated at 37 °C^, 5% CO2 for 72 h. Cultures were then fixed with 4% formaldehyde and 0.5 µg/mL DAPI (diamidino-2-phenylindole) was added for staining nucleic acids. Plates were kept protected from light for 1 h and then imaged in an ImageXpress Micro XLS automated high content imager (Molecular Devices, San Jose, CA, USA). Imaging and data analysis were performed as described for L. donovani amastigotes on biological triplicates.

[4] = test system: E. histolytica HM1:IMSS trophozoites; experiment: E. histolytica trophozoite viability assay (CellTiter-Glo); assay type: cell-based, Entamoeba histolytica; conditions: Entamoeba histolytica, 48 h
Protocol: Trophozoites of E. histolytica HM1:IMSS were maintained in vitro as described in TYI-S-33 medium supplemented with penicillin (100 U/mL) and streptomycin (100 µg/mL). Test compounds were serially diluted and transferred to a white solid bottomed 96-well tissue culture plate (E&K Scientific, Swedesboro, NJ, USA) followed by addition of 5000 E. histolytica trophozoites per well for a final volume of 100 µL TYI-S-33 medium and a final concentration of compounds ranging from 50 to 0.39 µM. Metronidazole were used as positive control and assay plates were incubated for 48 h at 37 °C. The plates maintained kept anaerobically using the GasPak EZ Anaerobic Gas Generating Pouch System (VWR). Parasite viability was measured in triplicate using the CellTiter-Glo luminescence kit (Promega G9243) in an Envision plate reader (Perkin Elmer, Waltham, MA, USA). EC50 values were obtained using GraphPad Prism 9 Software.

[5] = test system: G. lamblia (WB strain) trophozoites; experiment: G. lamblia trophozoite viability assay (CellTiter-Glo); assay type: cell-based, Giardia lamblia; conditions: Giardia duodenalis, 48 h
Protocol: Trophozoites of G. lamblia (WB strain) were maintained in vitro as described in TYI-S-33 medium supplemented with penicillin (100 U/mL) and streptomycin (100 µg/mL). Cells were harvested during the logarithmic phase of the growth for antiparasitic assessment. Test compounds were serially diluted and transferred to a white solid bottomed 96-well tissue culture plate (E&K Scientific, Swedesboro, NJ, USA) followed by addition of 5000 G. lamblia trophozoites for a final volume of 100 µL of TYI-S-33 medium and a final concentration of compounds ranging from 50.0 to 0.39 µM. Metronidazole was used as a positive control and assay plates were incubated for 48 h at 37 °C in the GasPak EZ Anaerobic Gas Generating Pouch System (VWR). Parasite viability was measured in triplicate using the CellTiter-Glo luminescence kit in an Envision plate reader. EC50 values were obtained using the GraphPad Prism 9 Software.

[6] = test system: T. b. brucei Lister 427 bloodstream forms; experiment: T. brucei bloodstream form viability assay (SYBR Green); assay type: cell-based, Trypanosoma brucei; conditions: Trypanosoma brucei; bloodstream forms, 72 h
Protocol: Bloodstream forms of T. b. brucei Lister 427 were cultured in complete HMI-9 medium in T25 suspension culture flasks (Thermo Scientific, Cat. 12-566-84) and maintained at 37 °C and 5% CO2. Trypanosomes were kept in log-phase growth and passaged every 48 h. […] Pentamidine were used as a positive control for T. brucei assay. Compounds were diluted with fresh HMI-9 medium (99 µL/well). Parasites in log-phase were suspended at 2 × 10^5 parasites/mL in HMI-9 medium and then added to each well (100 µL) to give 2 × 10^4 trypanosomes/well. Assay plates were incubated at 37 °C and 5% CO2 for 72 h. Parasite lysate was obtained by addition of 50 µL/well of lysis solution (0.012% saponin, 0.12% Triton X-100, 7.5 mM ETDA, 30 mM Tris, pH 7.5) containing 0.3 µL/mL SYBR Green I (10,000× in DMSO; Invitrogen, Carlsbad, CA, USA). Assay plates were incubated in the dark for 1 h at room temperature. Fluorescence was measured at 485 nm excitation and 535 nm emission wavelengths using an EnVision multilabel plate reader (PerkinElmer, Waltham, MA, USA). In each assay plate, parasite viability was normalized relative to positive (pentamidine) and negative (0.5% DMSO) controls in each assay plate. Assays were performed in biological and technical duplicates, and dose–response and EC50 data were generated with GraphPad Prism 9 using a sigmoidal four parameter logistic curve.

S. mansoni, adult worm = experiment: S. mansoni adult worm ex vivo phenotypic screen (severity score); assay type: cell-based, Schistosoma mansoni; conditions: after 24 h; tested at 10, 5, 2.5 and 1.25 µM; EC50
Source text: The Naval Medical Research Institute (NMRI) isolate of S. mansoni was used. The parasite was cycled between Biomphalaria glabrata snails and male Golden Syrian hamsters (infected at 4–6 weeks of age) as intermediate and definitive hosts, respectively. Hamsters were infected and maintained in accordance with protocols approved by the Institutional Animal Care and Use Committee (IACUC) at the University of California San Diego. The acquisition, preparation and in vitro maintenance of S. mansoni have been described. Briefly, adult worms were harvested from hamsters 42 days post-infection in RPMI or DMEM, and washed five times prior to maintenance overnight at 37 °C and 5% CO2 in Basch medium containing 4% heat-inactivated FBS, 100 µg/mL streptomycin and 100 U/mL penicillin.
Ex vivo screens with adults employed 24-well flat-bottomed plates and approximately 5 males and 2–3 females/well. The complex and often dynamic phenotypic responses that the schistosome parasite is capable of were observed using a Zeiss Axiovert A1 inverted microscope at 24 h. Observations were classified using a constrained nomenclature that involves simple “descriptors” to convey changes in shape, motility and appearance, and the inability of the male worm to adhere to the bottom of the well, compared to DMSO controls. Each descriptor was given a value of 1 and these were added up to yield a “severity score” with a maximum of 4. Evidence of degeneracy or death was awarded a value of 4 as was damage to the tegument (parasite’s surface) on the understanding this would compromise survival in vivo. […] Data were averaged across two experiments for each compound concentration tested.

C[C@@H]1[C@H](O)[C@@H](C)/C=C/C=C/C=C/C=C/C=C/C=C/C=C/[C@H](O[C@@H]2O[C@H](C)[C@@H](O)[C@H](N)[C@@H]2O)C[C@@H]2O[C@](O)(C[C@@H](O)C[C@@H](O)[C@H](O)CC[C@@H](O)C[C@@H](O)CC(=O)O[C@H]1C)C[C@H](O)[C@H]2C(=O)O [AmpB, amphotericin B, reference compound]
IC50 [1]: 740 nM | EC50 [2]: 90 nM

O=C(Cn1ccnc1[N+](=O)[O-])NCc1ccccc1 [Benznidazole, benznidazole, reference compound]
EC50 [3]: 4710 nM

Cc1ncc([N+](=O)[O-])n1CCO [Metronidazole, metronidazole, reference compound]
EC50 [4]: 4400 nM | EC50 [5]: 5700 nM

N=C(N)c1ccc(OCCCCCOc2ccc(C(=N)N)cc2)cc1 [Pentamidine, pentamidine, reference compound]
EC50 [6]: 10 nM

O=C(C1CCCCC1)N1CC(=O)N2CCc3ccccc3C2C1 (stereo not shown) [Praziquantel, praziquantel, reference compound]
S. mansoni, adult worm: least concentration at which a severity score of 4 was recorded (S. mansoni, adult worm): 1.25 µM

From paper PMC9785441, “A Broad Spectrum Antiparasitic Activity of Organotin (IV) Derivatives and Its Untargeted Proteomic Profiling Using Leishmania donovani” (Pathogens, 2022)
